Where two headings read alike, the source gives them in different places.
Tests used:
[1] = target: T1, IMPDH2 CBS domain pair (wild type) (Homo sapiens, UniProt P12268); assay: Displacement of bound ATP; format: binding
T1 construct: For IMPDH2, DNAs encoding residues 112-232 or the full-length protein (1-514) were amplified; His tag (vector pHAT20); made in house; host or cells: E. coli
Protocol: (§1) ATP or [^35S]SAM were incubated with GST-CBS domain fusions (1 ìM for WT, up to 20 μM for some mutants) for 10 min at 25° C. in a 20 il total volume in TBS. Reactions were stopped by spotting 10 ìl onto a Millipore MF Filter Membrane disc and rapidly washing under high vacuum with 1 ml of ice-cold TBS. Radioactivity was determined on the filters by scintillation counting. Non-specific binding (which was trivial) was determined by performing the assay with GST as a control, and was subtracted. […] Data were fitted to the binding models given in the text, using GraphPad Prism 3.

rat liver AMPK = settings: read-out: half-maximal effect (A0.5), cited from earlier work
CLC2 CBS1-2 (WT) = target: T2, CLC2 CBS1-2 (WT) (Homo sapiens, UniProt P51788); assay: Filter binding assay, GST-CBS domain fusion; settings: single-site model
T2 construct: DNAs encoding residues 582-840 of CLC2; made in house; host or cells: E. coli BL21 (DE3)
T2 sequence (P51788 582-840): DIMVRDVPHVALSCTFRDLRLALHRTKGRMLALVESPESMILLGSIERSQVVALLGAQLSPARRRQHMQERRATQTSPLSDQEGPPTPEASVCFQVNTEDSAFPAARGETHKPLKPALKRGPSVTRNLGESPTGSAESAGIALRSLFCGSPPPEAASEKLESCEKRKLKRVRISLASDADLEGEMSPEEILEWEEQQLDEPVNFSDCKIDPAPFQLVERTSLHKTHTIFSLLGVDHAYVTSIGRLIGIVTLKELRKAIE
Protocol: DNA encoding the CBS domain pair from the chloride channel CLC2 was also cloned and expressed.
All mutations were created using the Stratagene QuikChange Site-directed Mutagenesis system.
as §1

T1 sequence (P12268 112-232): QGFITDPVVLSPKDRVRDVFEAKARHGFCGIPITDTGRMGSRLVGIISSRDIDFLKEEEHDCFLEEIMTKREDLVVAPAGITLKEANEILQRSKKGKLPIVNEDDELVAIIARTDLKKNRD

Kd [1]: 440 µM
Kd (CLC2 CBS1-2 (WT)): 1060 ± 80 µM
SMILES: Nc1ncnc2c1ncn2[C@@H]1O[C@H](COP(=O)(O)O)[C@@H](O)[C@H]1O [AMP, adenosine monophosphate]
EC50 (rat liver AMPK; assays in 200 μM ATP): 4.4 µM
EC50 (rat liver AMPK; at 4 mM ATP): 29 µM
